# Tests used:
# Type in all cases: cell-based, human
# LO2 cells = assay: Cell metabolomics (UPLC-MS/MSe) of APAP-injured LO2 cells, differential metabolites DIAM vs MAGN; conditions: 600 μM, 48 h
# Protocol: LC-MS/MS analysis was conducted utilizing a Waters Acquity H UPLC system, interfaced with a Q-MS detector (Xevo G3 QTof, Waters, Milford, MA, USA). Chromatographic separation of metabolites was achieved on a BEH C18 Column (1.7 µm, 2.1 mm × 100 mm, Waters), maintained at a temperature of 40 °C. The injector sample chamber was maintained at 4 °C to ensure optimal sample handling. For positive ion analysis, the mobile phase comprised two solvents, 0.1% formic acid in water (solvent A) and acetonitrile (solvent B), delivered at a flow rate of 300 μL/min. The elution gradient was programmed as follows (acetonitrile percentage): 0–1 min 5%, 1–2 min 5–30%, 2–4 min 30–50%, 4–16 min 50–90%, 19–21 min 95%, 21–21.1 min 95–5%, and 21.1–23 min 5%. The capillary, sample cone, and source offset were set as 2.18 kV, 40, and 30. The temperatures of the source and desolvation were 100 and 600 °C. The gas flow of the cone gas and desolvation gas was set as 50 and 800 L/h. For the negative ion mode, the mobile phase consisted of 10 mM ammonium acetate (solvent A) and acetonitrile (solvent B), delivered at a flow rate of 300 μL/min. The elution gradient was programmed as follows: 0–1 min, 5%; 1–3 min, 5–80%; 3–4 min, 80–82%; 4–6 min, 82–88%; 6–25 min, 88–92%; 25–27 min, 92–95%; 27–27.1 min, 95–5%; 27.1–29 min, 5%. The mass spectrometry conditions were similar to those employed in the positive mode, with the exception of the capillary voltage, which was set to 2 kV. All samples were analyzed using an ESI source in MSe full scan mode, with a mass range spanning from m/z 50 to 2000 and a scan time of 0.5 s. Additionally, an automatic calibration system was employed to automatically adjust the MS and MSe parameters every 10 s.
# LO2 cells in the logarithmic growth phase were seeded into a 6-well plate at a density of 3 × 10^4 cells per well and incubated overnight under conditions of 37 °C and 5% CO2. Subsequently, varying concentrations of APAP were introduced, and MONO, DIAM, and MAGN were dissolved in the culture medium prior to their addition to the wells, ensuring a final concentration of 600 μM. The cells were then exposed to these samples for 48 h, following which the culture medium was discarded. The cells were rinsed with pre-cooled PBS at 4 °C and subsequently inactivated by the addition of 80% methanol maintained at a temperature below −20 °C. The cells were scraped off and homogenized using a cell disruptor for 3 min in an ice bath. The homogenized samples were centrifuged at 7500× g for 20 min at 4 °C, and the resultant supernatant was collected and dried using nitrogen gas. The dried samples were redissolved in 80% methanol at −20 °C, vortexed for 1 min, sonicated for 30 s, and then centrifuged again at 7500× g for 20 min at 4 °C. A total of 10 μL was allocated from each sample and mixed as a quality control (QC) sample, while 5 μL of the supernatant was subjected to UPLC-MS/MSe data acquisition on the instrument. The entire procedure was repeated in parallel for all samples, with a total of six replicates performed.
# Firstly, the raw data in the “.raw” format were imported into Progenesis QI software (Waters, Milford, MA, USA). This processing encompassed peak alignment, deconvolution, denoising, and other essential steps, resulting in the extraction of crucial information including retention time, charge-to-mass ratio, compound names, peak areas, and related parameters. To ensure data comparability and accuracy, each peak was then normalized against the total ion intensity, yielding a standardized matrix of retention time, peak area, and m/z values. […] Concurrently, the processed data were imported into SIMCA-P 14.0 software (Umetrics, Umeaa, Sweden) for advanced multivariate statistical analysis, encompassing principal component analysis (PCA) and supervised Orthogonal Partial Least Squares Discriminant Analysis (OPLS-DA). […]
# [1] = tested on: glutathione synthetase (GS); assay: ELISA of protein expression in LO2 cells: GS; conditions: 16 mM APAP, 600 μM, 48 h
# Protocol: (§1) The expression levels of glutamylcysteine synthetase (GCL), glutathione synthetase (GS), and 11β-hydroxysteroid dehydrogenase type 1 (11β-HSD1) in cells were quantified using commercially available enzyme-linked immunosorbent assay (ELISA) kits (Shanghai Aimeng Youning Biotechnology Co., Ltd., Shanghai, China). Cells in the logarithmic growth phase were seeded into 6-well plates at a density of 3 × 10^4 cells per well, pre-incubated for 24 h, and subsequently exposed to 16 mM APAP with concurrent administration of MONO, DIAM, and MAGN at a final concentration of 600 μM for 48 h. Following three PBS washes, cells were harvested using cell scrapers. Total protein content was determined by the Bradford assay, and samples were normalized to equivalent protein concentrations prior to quantitative analysis of target proteins according to the manufacturer’s protocols.
# [2] = tested on: glutamylcysteine synthetase (GCL); assay: ELISA of protein expression in LO2 cells: GCL; conditions: 16 mM APAP, 600 μM, 48 h
# Protocol: as §1
# [3] = tested on: 11β-hydroxysteroid dehydrogenase type 1 (11β-HSD1); assay: ELISA of protein expression in LO2 cells: 11β-HSD1; conditions: 16 mM APAP, 600 μM, 48 h
# Protocol: as §1
smiles,measurement,setting,value
"CC1(C)[C@@H](O[C@H]2O[C@H](C(=O)O)[C@@H](O)[C@H](O)[C@H]2O[C@@H]2O[C@H](C(=O)O)[C@@H](O)[C@H](O)[C@H]2O)CC[C@]2(C)[C@H]3C(=O)C=C4[C@H]5C[C@@](C)(C(=O)O)CC[C@]5(C)CC[C@@]4(C)[C@]3(C)CC[C@@H]12 [MAGN, magnesium isoglycyrrhizinate]",GSH-to-GSSG ratio,LO2 cells; MAGN compared to DIAM,stable
same,FC of Alpha-Cehc,LO2 cells; highest group MAGN vs DIAM,1.21
same,FC of Dioleoylphosphatidylserine,LO2 cells; highest group MAGN vs DIAM,1.92
same,FC of GSH,LO2 cells; highest group MAGN vs DIAM,1.24
same,FC of GSSG,LO2 cells; highest group MAGN vs DIAM,1.28
same,FC of Menaquinol-8,LO2 cells; highest group MAGN vs DIAM,1.68
same,FC of N-[(15Z)-tetracosenoyl]sphing-4-enine-1-phosphocholine,LO2 cells; highest group MAGN vs DIAM,2.55
same,FC of Solanidine,LO2 cells; highest group MAGN vs DIAM,1.32
same,GS expression,[1],remained comparable to DIAM-treated control
same,intracellular GCL levels,[2],significantly elevated
"CC1(C)[C@@H](O[C@H]2O[C@H](C(=O)O)[C@@H](O)[C@H](O)[C@H]2O[C@@H]2O[C@H](C(=O)O)[C@@H](O)[C@H](O)[C@H]2O)CC[C@]2(C)[C@H]3C(=O)C=C4[C@@H]5C[C@@](C)(C(=O)O)CC[C@]5(C)CC[C@@]4(C)[C@]3(C)CC[C@@H]12 [DIAM, diammonium glycyrrhizinate]",FC of 3-(10Z)-10-Heptadecen-1-ylphenol,LO2 cells; highest group DIAM vs MAGN,1.68
same,FC of 7-Dehydrocholesterol benzoate,LO2 cells; highest group DIAM vs MAGN,>10
same,FC of 8-Demethyl meiqx,LO2 cells; highest group DIAM vs MAGN,1.92
same,FC of 25-Hydroxyvitamin D2,LO2 cells; highest group DIAM vs MAGN,3.85
same,FC of Ammonium glycyrrhizate,LO2 cells; highest group DIAM vs MAGN,2.12
same,FC of Argiotoxin 659,LO2 cells; highest group DIAM vs MAGN,2.98
same,FC of Butyroin,LO2 cells; highest group DIAM vs MAGN,1.23
same,FC of C14 Ceramide,LO2 cells; highest group DIAM vs MAGN,1.20
same,FC of C16 Lactosylceramide (d18:1/16:0),LO2 cells; highest group DIAM vs MAGN,1.24
same,FC of CETYL BENZOATE,LO2 cells; highest group DIAM vs MAGN,1.37
same,FC of Cerlapirdine,LO2 cells; highest group DIAM vs MAGN,>10
same,FC of Ergocryptine,LO2 cells; highest group DIAM vs MAGN,1.92
same,FC of Euscaphic acid,LO2 cells; highest group DIAM vs MAGN,4.79
same,FC of Floctafenine,LO2 cells; highest group DIAM vs MAGN,4.41
same,FC of Glabric acid,LO2 cells; highest group DIAM vs MAGN,>10
same,FC of Glycerol phenylbutyrate,LO2 cells; highest group DIAM vs MAGN,1.36
same,FC of Glycyrrhetaldehyde,LO2 cells; highest group DIAM vs MAGN,>10
same,FC of Glycyrrhizin,LO2 cells; highest group DIAM vs MAGN,1.24
same,FC of Gypsogenin,LO2 cells; highest group DIAM vs MAGN,1.79
same,FC of N-eicosanoylsphinganine,LO2 cells; highest group DIAM vs MAGN,2.07
same,FC of N-tetracosanoylsphinganine,LO2 cells; highest group DIAM vs MAGN,>10
same,FC of Onnamide A,LO2 cells; highest group DIAM vs MAGN,2.42
same,FC of Pinnatoxin G,LO2 cells; highest group DIAM vs MAGN,1.55
same,FC of Prednisolone sodium tetrahydrophthalic,LO2 cells; highest group DIAM vs MAGN,1.66
same,FC of Pristimerin,LO2 cells; highest group DIAM vs MAGN,1.26
same,FC of Propapyriogenin A2,LO2 cells; highest group DIAM vs MAGN,6.06
same,FC of Sampangine,LO2 cells; highest group DIAM vs MAGN,>10
same,FC of Sphingosine-1-phosphate (d16:1),LO2 cells; highest group DIAM vs MAGN,3.78
same,FC of Stanozolol,LO2 cells; highest group DIAM vs MAGN,1.81
same,FC of Testosterone ketolaurate,LO2 cells; highest group DIAM vs MAGN,1.67
same,FC of Tetrahydrospirilloxanthin,LO2 cells; highest group DIAM vs MAGN,1.29
same,FC of Tirilazad,LO2 cells; highest group DIAM vs MAGN,1.74
same,FC of Tisocalcitate,LO2 cells; highest group DIAM vs MAGN,1.39
same,FC of Trametenolic acid,LO2 cells; highest group DIAM vs MAGN,>10
same,FC of Varespladib,LO2 cells; highest group DIAM vs MAGN,1.71
same,11β-HSD1 expression,[3],most pronounced upregulation
